Reference: patent EP1070454A1, “TRANSGENIC ANIMAL SHOWING VASCULAR TISSUE-SPECIFIC EXPRESSION OF ANGIOTENSIN II2 RECEPTOR” (SUNTORY LIMITED, priority 1999, dated 2000)

Tests used:
[1] = tested on: isolated aorta; experiment: Angiotensin II-induced contraction of isolated aorta (rings in myograph); type: cell-based, mice; settings: for Angiotensin II-induced vasoconstriction: isolated abdominal aorta rings, mean ± SE
Experimental: AngII-induced contraction of isolated aortic vessels was compared between transgenic and wild-type mice. After abdominal incision of each mouse, the abdominal aorta was isolated and cut into rings, which were then suspended under a constant tension of 0.8 g in a myograph. Change of vascular tension after addition of AngII was recorded under perfusion with Tyrode's solution (137 mmol/L NaCl, 2.7 mmol/L KCl, 1.8 mmol/L CaCl2, 1.1 mmol/L MgCl2, 0.42 mmol/L NaH2PO4, 12 mmol/L NaHCO3 and 5.7 mmol/L glucose, pH 7.4) (Table 2). AngII-induced contraction of isolated aorta increased by about 24% in AT2-TG mice in the presence of an AT2 receptor inhibitor (PD123319, 1-[[4-(dimethylamino)-3-methylphenyl]methyl]-5-(diphenylacetyl)-4,5,6,7-tetrahydro-1H-imidazo[4,5-c]pyridine-6-carboxylic acid ditrifluoroacetate monohydrate available from PARKE-DAVIS, Ann Arbor, Michigan) as compared with the contraction in its absence.

[2] = tested on: cGMP production in isolated aorta; experiment: Angiotensin II-induced cGMP production in isolated aorta (radioimmunoassay); type: cell-based, mice; settings: for Angiotensin II-induced cGMP production in isolated aorta: mean ± SE; for inhibition of the increase of cGMP production: increase caused by AngII + CV11974
Excerpt: Then, AngII-induced cGMP production in isolated aortic vessels was compared between transgenic and wild-type mice in order to examine whether or not vasodilator action of AngII is mediated by cGMP. After abdominal incision of each mouse, the abdominal aorta was isolated and the aortic extract homogenized by sonication in ethanol was dried in nitrogen and treated with an acetylation reagent (acetic anhydride : triethylamine = 1:2) and then assayed for cGMP level by radioimmunoassay using an anti cGMP antibody (Table 3). […]

[3] = tested on: kininogenase; experiment: Angiotensin II-induced kininogenase activity in isolated aorta (radioimmunoassay); type: biochemical, mice; settings: for Angiotensin II-induced kininogenase activity in isolated aorta: mean ± SE; for inhibition of the increase of kininogenase activity: increase caused by AngII + CV11974
Experimental: Then, the activity of kininogenase, which is an enzyme for producing bradykinin from kinonogen, was compared between transgenic and wild-type mice in isolated aortic vessels. After abdominal incision of each mouse, the abdominal aorta was isolated and the aortic extract homogenized in the presence of 0.1 M phosphate buffer (0.2% bacitracin, 3 mM O-phenanthroline, 30 mM EDTA-Na2) containing a protease inhibitor was dried in nitrogen under 90% ethanol. The dried extract was solubilized in a buffer containing an angiotensin-converting enzyme inhibitor and tested for kininogenase activity by radioimmunoassay of […] produced from bovine kininogen as a substrate (Table 4).

[4] = Blood pressure change after continuous administration of angiotensin II (tail-cuff method); type: in vivo, mice; settings: for Average blood pressure under administration of angiotensin II: AngII 0.7 mg/day/kg via osmotic pump, mean ± SE
Experimental: Change of average awaking blood pressure induced by chronic administration of angiotensin II (AngII) was compared between transgenic and wild-type mice. AngII (0.7 mg/day/kg) was chronically administered via an osmotic pump embedded in the back of each mouse, and the blood pressure of the mouse was measured at the tail by the tail-cuff method (Table 1). […]

[5] = AT2-TG mice, in the presence of AngII + CV11974 (AT2 receptor stimulation)
[6] = wild-type mice, in the presence of AngII + CV11974 (AT2 receptor stimulation)

For “Angiotensin II [AngII, vasopressor whose action is mediated through receptor subtypes AT1 and AT2]”, the “Angiotensin II-induced vasoconstriction” value ([1]; AT2-TG mice, without or with PD123319) was 100±0.2 % of control, the “Angiotensin II-induced vasoconstriction” value ([1]; Wild-type mice, without or with PD123319) was 100±0.7 % of control and the “Angiotensin II-induced cGMP production in isolated aorta” value ([2]; AT2-TG mice) was 330±41 fmol/gwt. The “Angiotensin II-induced cGMP production in isolated aorta” value ([2]; Wild-type mice) was 328±14 fmol/gwt, the “Angiotensin II-induced kininogenase activity in isolated aorta” value ([3]; AT2-TG mice) was 0.76±0.07 ng kinin/mg/h and the “Angiotensin II-induced kininogenase activity in isolated aorta” value ([3]; Wild-type mice) was 0.68±0.11 ng kinin/mg/h. For the same compound, the “Average blood pressure under administration of angiotensin II” value (from here on “Average blood pressure … of angiotensin II”) ([4]; AT2-TG mice, Day 0) was 85±1.8 mmHg, the “Average blood pressure … of angiotensin II” value ([4]; AT2-TG mice, Day 4) was 84±2.7 mmHg and the “Average blood pressure … of angiotensin II” value ([4]; AT2-TG mice, Day 7) was 87±2.1 mmHg. The “Average blood pressure … of angiotensin II” value ([4]; AT2-TG mice, Day 14) was 89±2.6 mmHg, the blood pressure change ([4]; AT2-TG mice, after 2 weeks, AngII 0.7 mg/day/kg) was “no blood pressure change” and the “Average blood pressure … of angiotensin II” value ([4]; Wild-type mice, Day 0) was 83±2.7 mmHg. The “Average blood pressure … of angiotensin II” value ([4]; Wild-type mice, Day 4) was 94±2.1 mmHg, the “Average blood pressure … of angiotensin II” value ([4]; Wild-type mice, Day 7) was 114±2.8 mmHg and the “Average blood pressure … of angiotensin II” value ([4]; Wild-type mice, Day 14) was 121±3.2 mmHg. For the same compound, the “increase in average blood pressure” value ([4]; wild-type mice, after 2 weeks, AngII 0.7 mg/day/kg) was 38 mmHg.
With icatibant the “inhibition of the increase of cGMP production” value ([2]; AT2-TG mice) was “completely inhibited” and the “inhibition of the increase of kininogenase activity” value ([3]; AT2-TG mice) was “completely inhibited”.
In the case of `CCOc1nc2cccc(C(=O)O)c2n1Cc1ccc(-c2ccccc2-c2nnn[nH]2)cc1` (racemic) [CV11974], the “increase of amount of cGMP produced in isolated aorta” value [2, 5] is reported as 105%, the “change of amount of cGMP produced in isolated aorta” value [2, 6] is reported as “did not change” and the “increase of kininogenase activity in isolated aorta” value [3, 5] is reported as 150%. For the same compound, the “change of kininogenase activity in isolated aorta” value [3, 6] was “did not change”.
For `Cc1cc(Cn2cnc3c2CC(C(=O)O)N(C(=O)C(c2ccccc2)c2ccccc2)C3)ccc1N(C)C.O.O=C(O)C(F)(F)F.O=C(O)C(F)(F)F` (stereo not shown) [PD123319, 1-[[4-(dimethylamino)-3-methylphenyl]methyl]-5-(diphenylacetyl)-4,5,6,7-tetrahydro-1H-imidazo[4,5-c]pyridine-6-carboxylic acid ditrifluoroacetate monohydrate], the “increase of AngII-induced contraction of isolated aorta” value ([1]; AT2-TG mice, in the presence of PD123319 compared with its absence) was “about 24%”, the “Angiotensin II-induced vasoconstriction” value ([1]; AT2-TG mice, with PD123319, relative to its absence) was 124±2.1 % of control and the “Angiotensin II-induced vasoconstriction” value ([1]; Wild-type mice, with PD123319, relative to its absence) was 98±1.1 % of control. For the same compound, the “change of AngII-induced contraction” value ([1]; wild-type mice, in the presence of PD123319) was “no contraction change”.
For `COC(=O)[C@@H](N)CCCNC(=N)N[N+](=O)[O-]` [L-NAME], the “inhibition of the increase of cGMP production” value ([2]; AT2-TG mice) was “completely inhibited” and the “inhibition of the increase of kininogenase activity” value ([3]; AT2-TG mice) was “completely inhibited”.
